# Assay results from ChEMBL document CHEMBL1138072, “Critical modifications of the ISO-1 scaffold improve its potent inhibition of macrophage migration inhibitory factor (MIF) tautomerase activity” (Bioorg Med Chem Lett, 2006).
# Biological target: T1, Macrophage migration inhibitory factor (Homo sapiens, UniProt P14174)
# T1 sequence (P14174 whole entry): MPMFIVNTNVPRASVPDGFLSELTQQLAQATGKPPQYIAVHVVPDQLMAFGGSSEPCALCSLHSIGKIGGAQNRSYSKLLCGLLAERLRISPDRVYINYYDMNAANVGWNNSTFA
# Test: Inhibition of MIF tautomerase activity
row,IC50,Compound
1,26 µM,COc1ccc(NC(=O)CC2CC(c3ccc(O)cc3)=NO2)cc1 (stereo unspecified)
2,> 100 µM,NCCCCNC(=O)CC1CC(c2ccc(O)cc2)=NO1 (stereo unspecified)
3,10 µM,CC(C)(C)c1ccc(OC(=O)CC2CC(c3ccc(O)cc3)=NO2)cc1 (stereo unspecified)
4,6.5 µM,COC(=O)CC1CC(c2ccc(O)c(F)c2)=NO1 (stereo unspecified)
5,2.5 µM,O=C(CC1CC(c2ccc(O)cc2)=NO1)OC1CCCCC1 (stereo unspecified)
6,4 µM,CCCOC(=O)CC1CC(c2ccc(O)cc2)=NO1 (stereo unspecified)
7,20 µM,Cc1cc(C)c(OC(=O)CC2CC(c3ccc(O)cc3)=NO2)c(C)c1 (stereo unspecified)
8,8.5 µM,CC(C)(C)OC(=O)NCCCCNC(=O)CC1CC(c2ccc(O)cc2)=NO1 (stereo unspecified)
9,12 µM,CCOC(=O)CC1CC(c2ccc(O)cc2)=NO1 (stereo unspecified)
10,10 µM,O=C(CC1CC(c2ccc(O)cc2)=NO1)Oc1ccccc1 (stereo unspecified)
11,3 µM,CCCCOC(=O)CC1CC(c2ccc(O)cc2)=NO1 (stereo unspecified)
12,5 µM,O=C(CC1CC(c2ccc(O)cc2)=NO1)OCC1CCCCC1 (stereo unspecified)
13,1.5 µM,CC(C)(C)COC(=O)CC1CC(c2ccc(O)cc2)=NO1 (stereo unspecified)
14,24 µM,O=C(CC1CC(c2ccc(O)cc2)=NO1)NC1CCCCC1 (stereo unspecified)
15,6 µM,CC(C)OC(=O)CC1CC(c2ccc(O)cc2)=NO1 (stereo unspecified)
16,8.5 µM,COc1ccc(OC(=O)CC2CC(c3ccc(O)cc3)=NO2)cc1 (stereo unspecified)
